Assay results from patent publication US20090170812A1, “Transcription factor modulating compounds and methods of use thereof” (priority 2006, published 2009).

Legend:
LcrF (VirF) = LcrF (VirF) (Yersinia pestis, UniProt P28808); experiment: biochemical; type: binding, Y. pseudotuberculosis
ExsA = target: T1, ExsA (Pseudomonas aeruginosa, UniProt P26993); experiment: In vitro activity of Mar inhibitors against ExsA: cell-free DNA binding assay; settings: purified ExsA from P. aeruginosa, inhibition of DNA binding in vitro
T1 construct: made in house
T1 sequence (P26993 1-278): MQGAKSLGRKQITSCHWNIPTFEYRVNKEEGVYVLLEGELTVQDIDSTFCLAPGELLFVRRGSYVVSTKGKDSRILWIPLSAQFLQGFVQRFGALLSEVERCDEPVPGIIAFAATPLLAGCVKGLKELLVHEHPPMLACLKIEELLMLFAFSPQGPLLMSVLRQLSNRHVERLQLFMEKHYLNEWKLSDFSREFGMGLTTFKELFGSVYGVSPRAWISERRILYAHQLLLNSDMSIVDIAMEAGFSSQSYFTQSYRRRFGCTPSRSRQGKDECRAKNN

[1] = test system: Yersinia pseudotuberculosis
P. aeruginosa = experiment: Whole cell assay: cytotoxicity of P. aeruginosa toward J774 cells (CytoTox 96, LDH release); settings: percent cytotoxicity of treated P. aeruginosa toward J774 cells

LcrF (VirF), sequence (P28808 whole entry, looked up): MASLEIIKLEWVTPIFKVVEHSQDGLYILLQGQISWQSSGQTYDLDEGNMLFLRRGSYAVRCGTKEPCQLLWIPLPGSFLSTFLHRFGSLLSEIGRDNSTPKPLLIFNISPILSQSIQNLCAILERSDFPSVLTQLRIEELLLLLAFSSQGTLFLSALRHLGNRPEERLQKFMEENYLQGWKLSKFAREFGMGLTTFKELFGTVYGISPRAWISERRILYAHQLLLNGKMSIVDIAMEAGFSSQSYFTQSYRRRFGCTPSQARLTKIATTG

Row | SMILES | EC50 (LcrF (VirF)) [µM] | EC50 (ExsA) [µM] | Cytotoxicity at 50 μg/mL Yersinia [1] | Cytotoxicity at 50 μg/mL Pseudomonas (P. aeruginosa)
1 | O=C(/C=C/c1ccc(F)cc1)Nc1ccc(-c2nc3ccc([N+](=O)[O-])cc3n2OCP(=O)(O)O)cc1 [Compound AL, (2-{4-[(E)-3-(4-Fluoro-phenyl)-acryloylamino]-phenyl}-6-nitro-benzoimidazol-1-yloxymethyl)-phosphonic Acid] | < 10 | < 10 | ** (key: *: percent cytotoxicity above 75% at 50 μg/mL; **: cytotoxicities below 75% at 50 μg/mL) | * (percent cytotoxicities above 75% at 50 mg/mL)
2 | O=C(Nc1ccc(-c2nc3ccc([N+](=O)[O-])cc3n2O)cn1)c1ccc(F)cc1 [AJ] | 10.1 to 25 | 10.1 to 25 | * (key: *: percent cytotoxicity above 75% at 50 μg/mL; **: cytotoxicities below 75% at 50 μg/mL) | * (percent cytotoxicities above 75% at 50 mg/mL)
3 | CC(=O)c1ccc(C(=O)Nc2ccc(-c3nc4ccc([N+](=O)[O-])cc4n3O)cc2F)cc1 [Compound BA, 4-Acetyl-N-[2-fluoro-4-(1-hydroxy-6-nitro-1H-benzoimidazol-2-yl)-phenyl]-benzamide] | 10.1 to 25 | < 10 | * (key: *: percent cytotoxicity above 75% at 50 μg/mL; **: cytotoxicities below 75% at 50 μg/mL) | * (percent cytotoxicities above 75% at 50 mg/mL)
4 | CC(=O)c1ccc(C(=O)Nc2ccc(-c3nc4ncc([N+](=O)[O-])cc4n3O)cc2)cc1 [Y] | 10.1 to 25 | < 10 | * (key: *: percent cytotoxicity above 75% at 50 μg/mL; **: cytotoxicities below 75% at 50 μg/mL) | * (percent cytotoxicities above 75% at 50 mg/mL)
5 | O=C(Nc1ccc(-c2nc3ncc([N+](=O)[O-])cc3n2O)cc1)c1ccc(F)cc1 [X] | 10.1 to 25 | 10.1 to 25 | * (key: *: percent cytotoxicity above 75% at 50 μg/mL; **: cytotoxicities below 75% at 50 μg/mL) | * (percent cytotoxicities above 75% at 50 mg/mL)
6 | O=C(/C=C/c1ccc(F)cc1F)Nc1ccc(-c2nc3ccc([N+](=O)[O-])cc3n2O)cn1 [AQ] | < 10 | < 10 | * (key: *: percent cytotoxicity above 75% at 50 μg/mL; **: cytotoxicities below 75% at 50 μg/mL) | * (percent cytotoxicities above 75% at 50 mg/mL)
7 | Cc1ccc(/C=C/C(=O)Nc2ccc(-c3nc4ccc(C#N)cc4n3O)cc2)cc1 [E] | 10.1 to 25 | < 10 | ** (key: *: percent cytotoxicity above 75% at 50 μg/mL; **: cytotoxicities below 75% at 50 μg/mL) | * (percent cytotoxicities above 75% at 50 mg/mL)
8 | O=C(Nc1ccc(-c2nc3ccc([N+](=O)[O-])cc3n2O)cc1)c1ccc(-c2cncnc2)cc1 [R] | > 25.1 | 10.1 to 25 | ** (key: *: percent cytotoxicity above 75% at 50 μg/mL; **: cytotoxicities below 75% at 50 μg/mL) | * (percent cytotoxicities above 75% at 50 mg/mL)
9 | CCOP(=O)(Cc1cc(/C=C/C(=O)Nc2ccc(-c3nc4ccc([N+](=O)[O-])cc4n3O)cc2)ccc1F)OCC [AT] | < 10 | < 10 | * (key: *: percent cytotoxicity above 75% at 50 μg/mL; **: cytotoxicities below 75% at 50 μg/mL) | * (percent cytotoxicities above 75% at 50 mg/mL)
10 | CC(=O)c1ccc(C(=O)Nc2ccc(-c3nc4ccc([N+](=O)[O-])cc4n3O)nc2)cc1 [AG] | > 25.1 | 10.1 to 25 | * (key: *: percent cytotoxicity above 75% at 50 μg/mL; **: cytotoxicities below 75% at 50 μg/mL) | * (percent cytotoxicities above 75% at 50 mg/mL)
11 | O=C(/C=C/c1ccc(F)cc1)Nc1ccc(-c2nc3ccc([N+](=O)[O-])cc3n2O)nc1 [AO] | 10.1 to 25 | < 10 | * (key: *: percent cytotoxicity above 75% at 50 μg/mL; **: cytotoxicities below 75% at 50 μg/mL) | * (percent cytotoxicities above 75% at 50 mg/mL)
12 | CCc1cc(-c2nc3ccc([N+](=O)[O-])cc3n2O)ccc1NC(=O)/C=C/c1ccc(C)cc1 [AE] | < 10 | < 10 | * (key: *: percent cytotoxicity above 75% at 50 μg/mL; **: cytotoxicities below 75% at 50 μg/mL) | * (percent cytotoxicities above 75% at 50 mg/mL)
13 | CC(=O)c1ccc(C(=O)Nc2ccc(-c3nc4cc(C)c([N+](=O)[O-])cc4n3O)cc2)cc1 [BE] | < 10 | < 10 | * (key: *: percent cytotoxicity above 75% at 50 μg/mL; **: cytotoxicities below 75% at 50 μg/mL) | * (percent cytotoxicities above 75% at 50 mg/mL)
14 | N#Cc1ccc2nc(-c3ccc(NC(=O)c4ccc(F)cc4)cc3)n(O)c2c1 [K] | > 25.1 | 10.1 to 25 | * (key: *: percent cytotoxicity above 75% at 50 μg/mL; **: cytotoxicities below 75% at 50 μg/mL) | * (percent cytotoxicities above 75% at 50 mg/mL)
